pEC50: −log10 of the molar value.
Biological target: T1, human GPR119 (Homo sapiens, UniProt Q8TDV5)
T1 construct: expression vector for human GPR119 cDNA (Acc. No. NP_848566); expressed in transfected cells; Min-6/hGPR119
T1 sequence (Q8TDV5 1-335): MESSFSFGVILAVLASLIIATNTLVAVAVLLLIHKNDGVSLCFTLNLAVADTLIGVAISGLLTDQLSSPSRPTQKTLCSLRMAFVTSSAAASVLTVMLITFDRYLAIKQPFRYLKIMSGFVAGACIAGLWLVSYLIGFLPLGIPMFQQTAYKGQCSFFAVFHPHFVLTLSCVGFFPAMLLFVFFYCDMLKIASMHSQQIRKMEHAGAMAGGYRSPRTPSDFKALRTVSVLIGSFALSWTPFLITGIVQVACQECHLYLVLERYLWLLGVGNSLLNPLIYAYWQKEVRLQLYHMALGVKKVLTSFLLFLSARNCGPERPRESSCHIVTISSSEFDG
Assay: AlphaScreen cAMP assay in MIN6 cells stably transfected with human GPR119
Type: cell-based
Settings: Min-6/hGPR119 cells, 45 min at room temperature
Procedure, shortened: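 MIN6 cells stably expressing human GPR119, seeded 10000/well and grown 24 h, were exposed to compound in pH 7.4 buffer with 0.5 mM IBMX, 0.1% BSA and 1% DMSO for 45 min at room temperature. Intracellular cAMP then measured by AlphaScreen.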

SMILES	pEC50
CC(C)(C)OC(=O)N1CCC(N(C(=O)c2cnc(-c3ccc(CC(=O)NCC4CCCCO4)cc3)nc2)C2CC2)CC1 (centres unmarked) [Example 219, 4-{Cyclopropyl-[2-(4-{[(tetrahydro-pyran-2-ylmethyl)-carbamoyl]-methyl}-phenyl)-pyrimidine-5-carbonyl]-amino}-piperidine-1-carboxylic acid tert-butyl ester]	6.43
CC(C)(C)OC(=O)N1CCC(N(C(=O)c2cc(-c3cccc([N+](=O)[O-])c3)[nH]n2)C2CC2)CC1 [Example 64, 4-{Cyclopropyl-[5-(3-nitro-phenyl)-1H-pyrazole-3-carbonyl]-amino}-piperidine-1-carboxylic acid tert-butyl ester]	6.03
CC(C)(C)OC(=O)N1CCC(N(C(=O)c2cnc(-c3ccc(C(=O)NC4CCC(O)CC4)cc3)nc2)C2CC2)CC1 (centres unmarked) [Example 171, 4-(Cyclopropyl-{2-[4-(4-hydroxy-cyclohexylcarbamoyl)-phenyl]-pyrimidine-5-carbonyl}-amino)-piperidine-1-carboxylic acid tert-butyl ester]	6.42
CC(C)(C)OC(=O)N1CCC(N(C(=O)c2cnc(-c3ccc(C(=O)NCc4ccncc4)cc3)nc2)C2CC2)CC1 [Example 241, 4-[Cyclopropyl-(2-{4-[(pyridin-4-ylmethyl)-carbamoyl]-phenyl}-pyrimidine-5-carbonyl)-amino]-piperidine-1-carboxylic acid tert-butyl ester]	6.61
CN(CC1(C)COC1)C(=O)Cc1ccc(-c2ncc(C(=O)N(C3CC3)C3CCN(C(=O)OC(C)(C)C)CC3)cn2)cc1 [Example 186, 4-{Cyclopropyl-[2-(4-{[methyl-(3-methyl-oxetan-3-ylmethyl)-carbamoyl]-methyl}-phenyl)-pyrimidine-5-carbonyl]-amino}-piperidine-1-carboxylic acid tert-butyl ester]	6.21
CC(C)(C)OC(=O)N1CCC(N(C(=O)c2cnc(-c3ccc(C(=O)N4CCC(O)(C(F)(F)F)CC4)c(F)c3)nc2)C2CC2)CC1 [Example 141, 4-(Cyclopropyl-{2-[3-fluoro-4-(4-hydroxy-4-trifluoromethyl-piperidine-1-carbonyl)-phenyl]-pyrimidine-5-carbonyl}-amino)-piperidine-1-carboxylic acid tert-butyl ester]	6.64
Cc1nc(-c2ccc(C#N)cc2F)sc1C(=O)N(C1CC1)C1CCN(C(=O)OC(C)(C)C)CC1 [Example 48, 4-{[2-(4-Cyano-2-fluoro-phenyl)-4-methyl-thiazole-5-carbonyl]-cyclopropyl-amino}-piperidine-1-carboxylic acid tert-butyl ester]	5.87
CC(C)(C)OC(=O)N1CCC(N(C(=O)c2cnc(-c3ccc(C(=O)NCC4CCOC4)cc3)nc2)C2CC2)CC1 (centres unmarked) [Example 237, 4-[Cyclopropyl-(2-{4-[(tetrahydro-furan-3-ylmethyl)-carbamoyl]-phenyl}-pyrimidine-5-carbonyl)-amino]-piperidine-1-carboxylic acid tert-butyl ester]	6.39
CN(C(=O)c1ccc(-c2ncc(C(=O)N(C3CC3)C3CCN(C(=O)OC(C)(C)C)CC3)cn2)cc1)C1CCOCC1 [Example 205, 4-[Cyclopropyl-(2-{4-[methyl-(tetrahydro-pyran-4-yl)-carbamoyl]-phenyl}-pyrimidine-5-carbonyl)-amino]-piperidine-1-carboxylic acid tert-butyl ester]	6.46
CC(C)(C)OC(=O)N1CCC(N(C(=O)c2ncc(-c3ccc(S(C)(=O)=O)cc3)cn2)C2CC2)CC1 [Example 68, 4-{Cyclopropyl-[5-(4-methanesulfonyl-phenyl)-pyrimidine-2-carbonyl]-amino}-piperidine-1-carboxylic acid tert-butyl ester]	6.26
Cc1nc(CNC(=O)c2ccc(-c3ncc(C(=O)N(C4CC4)C4CCN(C(=O)OC(C)(C)C)CC4)cn3)cc2)cs1 [Example 201, 4-[Cyclopropyl-(2-{4-[(2-methyl-thiazol-4-ylmethyl)-carbamoyl]-phenyl}-pyrimidine-5-carbonyl)-amino]-piperidine-1-carboxylic acid tert-butyl ester]	6.74
CC(C)(C)OC(=O)N1CCC(N(C(=O)c2cnc(-c3ccc(C(=O)N4CCOCC4)cc3)nc2)C2CC2)CC1 [Example 230, 4-(Cyclopropyl-{2-[4-(morpholine-4-carbonyl)-phenyl]-pyrimidine-5-carbonyl}-amino)-piperidine-1-carboxylic acid tert-butyl ester]	6.53
Cc1ccc(-c2ncc(C(=O)N(C3CC3)C3CCN(C(=O)OC(C)(C)C)CC3)cn2)cn1 [Example 89, 4-{Cyclopropyl-[2-(6-methyl-pyridin-3-yl)-pyrimidine-5-carbonyl]-amino}-piperidine-1-carboxylic acid tert-butyl ester]	6.62

Continued by rising pEC50, values first:

pEC50	SMILES
6.75	CC(C)(C)OC(=O)N1CCC(N(C(=O)c2cnc(-c3ccc(C(=O)NCc4cccnc4)cc3)nc2)C2CC2)CC1 [Example 229, 4-[Cyclopropyl-(2-{4-[(pyridin-3-ylmethyl)-carbamoyl]-phenyl}-pyrimidine-5-carbonyl)-amino]-piperidine-1-carboxylic acid tert-butyl ester]
6.76	CC(C)(C)OC(=O)N1CCC(N(C(=O)c2cnc(-c3ccc(C(=O)NCc4cccnc4)c(F)c3)nc2)C2CC2)CC1 [Example 165, 4-[Cyclopropyl-(2-{3-fluoro-4-[(pyridin-3-ylmethyl)-carbamoyl]-phenyl}-pyrimidine-5-carbonyl)-amino]-piperidine-1-carboxylic acid tert-butyl ester]
6.77	COCc1cccc(NC(=O)c2ccc(-c3ncc(C(=O)N(C4CC4)C4CCN(C(=O)OC(C)(C)C)CC4)cn3)cc2)c1 [Example 240, 4-(Cyclopropyl-{2-[4-(3-methoxymethyl-phenylcarbamoyl)-phenyl]-pyrimidine-5-carbonyl}-amino)-piperidine-1-carboxylic acid tert-butyl ester]
6.81	CC(C)(C)OC(=O)N1CCC(N(C(=O)c2cnc(-c3ccc(C(=O)NCC4CCOCC4)c(F)c3)nc2)C2CC2)CC1 [Example 128, 4-[Cyclopropyl-(2-{3-fluoro-4-[(tetrahydro-pyran-4-ylmethyl)-carbamoyl]-phenyl}-pyrimidine-5-carbonyl)-amino]-piperidine-1-carboxylic acid tert-butyl ester]
6.83	Cc1nc(CNC(=O)c2ccc(-c3ncc(C(=O)N(C4CC4)C4CCN(C(=O)OC(C)(C)C)CC4)cn3)cc2F)cs1 [Example 119, 4-[Cyclopropyl-(2-{3-fluoro-4-[(2-methyl-thiazol-4-ylmethyl)-carbamoyl]-phenyl}-pyrimidine-5-carbonyl)-amino]-piperidine-1-carboxylic acid tert-butyl ester]
6.84	CC(C)(C)OC(=O)N1CCC(N(C(=O)c2cnc(-c3ccc(C(=O)NCc4ccccn4)c(F)c3)nc2)C2CC2)CC1 [Example 105, 4-[Cyclopropyl-(2-{3-fluoro-4-[(pyridin-2-ylmethyl)-carbamoyl]-phenyl}-pyrimidine-5-carbonyl)-amino]-piperidine-1-carboxylic acid tert-butyl ester]
6.92	CC(C)OC(=O)N1CCC(N(C(=O)c2cnc(-c3ccc(S(C)(=O)=O)cc3)nc2)C2CC2)CC1 [Example 53, 4-{Cyclopropyl-[2-(4-methanesulfonyl-phenyl)-pyrimidine-5-carbonyl]-amino}-piperidine-1-carboxylic acid isopropyl ester]
6.93	CC(C)(C)OC(=O)N1CCC(N(C(=O)c2coc(-c3ccc(C#N)cc3)n2)C2CC2)CC1 [Example 29, 4-{[2-(4-Cyano-phenyl)-oxazole-4-carbonyl]-cyclopropyl-amino}-piperidine-1-carboxylic acid tert-butyl ester]
7.00	CC(C)(C)OC(=O)N1CCC(N(C(=O)c2cnc(-c3ccc(C(=O)NCc4ccncc4)c(F)c3)nc2)C2CC2)CC1 [Example 126, 4-[Cyclopropyl-(2-{3-fluoro-4-[(pyridin-4-ylmethyl)-carbamoyl]-phenyl}-pyrimidine-5-carbonyl)-amino]-piperidine-1-carboxylic acid tert-butyl ester]
7.19	COc1ncc(-c2ncc(C(=O)N(C3CC3)C3CCN(C(=O)OC(C)(C)C)CC3)cn2)cn1 [Example 82, 4-[Cyclopropyl-(2′-methoxy-[2,5′]bipyrimidinyl-5-carbonyl)-amino]-piperidine-1-carboxylic acid tert-butyl ester]
7.20	CC(C)(C)OC(=O)N1CCC(N(C(=O)c2cnc(-c3ccc(C(=O)Nc4ccccc4)cc3)nc2)C2CC2)CC1 [Example 183, 4-{Cyclopropyl-[2-(4-phenylcarbamoyl-phenyl)-pyrimidine-5-carbonyl]-amino}-piperidine-1-carboxylic acid tert-butyl ester]
7.48	CC(C)(C)OC(=O)N1CCC(N(C(=O)c2noc(-c3ccc(S(C)(=O)=O)c(F)c3)n2)C2CC2)CC1 [Example 21, 4-{Cyclopropyl-[5-(3-fluoro-4-methanesulfonyl-phenyl)-[1,2,4]oxadiazole-3-carbonyl]-amino}-piperidine-1-carboxylic acid tert-butyl ester]
8.15	CC(C)(C)OC(=O)N1CCC(N(C(=O)c2noc(-c3ccc(C#N)c(F)c3)n2)C2CC2)CC1 [Example 20, 4-{[5-(4-Cyano-3-fluoro-phenyl)-[1,2,4]oxadiazole-3-carbonyl]-cyclopropyl-amino}-piperidine-1-carboxylic acid tert-butyl ester]
